A short description of data set [1]: Half life in mouse liver microsomes. The format is ADME, Microsome. For orientation: Liver microsomes are vesicles of endoplasmic reticulum, rich in cytochrome P450 enzymes.
The nature of data set [2]: Half life in rat liver microsomes. The data set is classed as ADME, Microsome.
Data set [3] can be described thus: Half life in human liver microsomes. The format is ADME, Microsome.
Data set [4] concerns the target T1, Nuclear receptor ROR-gamma (Homo sapiens, UniProt P51449).
T1 sequence (P51449 whole entry): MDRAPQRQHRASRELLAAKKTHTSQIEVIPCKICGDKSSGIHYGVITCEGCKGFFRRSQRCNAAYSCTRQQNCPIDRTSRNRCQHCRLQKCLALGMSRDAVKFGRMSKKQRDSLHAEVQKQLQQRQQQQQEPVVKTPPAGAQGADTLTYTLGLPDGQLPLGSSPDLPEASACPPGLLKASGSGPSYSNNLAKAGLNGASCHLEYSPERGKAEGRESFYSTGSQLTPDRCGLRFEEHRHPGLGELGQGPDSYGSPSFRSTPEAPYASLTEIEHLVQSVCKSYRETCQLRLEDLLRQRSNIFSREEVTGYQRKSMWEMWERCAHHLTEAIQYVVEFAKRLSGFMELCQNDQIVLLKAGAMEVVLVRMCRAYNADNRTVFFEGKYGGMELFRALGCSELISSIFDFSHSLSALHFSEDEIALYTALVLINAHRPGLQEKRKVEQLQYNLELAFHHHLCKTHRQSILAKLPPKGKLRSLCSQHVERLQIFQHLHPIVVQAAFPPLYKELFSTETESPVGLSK
Description: Inverse agonist activity at Gal4-fused RORgammat LBD (unknown origin) by reporter gene assay.

Data set [5] has as its target T1, Nuclear receptor ROR-gamma. Description: Inverse agonist activity at RORgammat in human whole blood assessed as IL-17 production by ELISA. The data set is classed as tissue-based. (In general: In an ELISA, binding on a coated surface is turned into a signal by an enzyme label.)

The results in this text go back to ChEMBL document CHEMBL4665919, “Novel Tricyclic Pyroglutamide Derivatives as Potent RORγt Inverse Agonists Identified using a Virtual Screening Approach” (ACS Med Chem Lett, 2020).

Each structure is given as a SMILES string.

In general, half-life refers to how long it takes for the measured level to halve. A lower half-life goes with rapid decline. For the molecule `[2H]C([2H])([2H])N1C(=O)[C@H](F)C[C@H]1C(=O)N1CC[C@@]2(S(=O)(=O)c3ccc(F)cc3)c3ccc(C(F)(C(F)(F)F)C(F)(F)F)cc3CC[C@@H]12`, the half-life in data set [1], in data set [2] and in data set [3] was over 120 min throughout.

With `O=C1[C@H](F)C[C@@H](C(=O)N2CC[C@@]3(S(=O)(=O)c4ccc(F)cc4)c4ccc(C(F)(C(F)(F)F)C(F)(F)F)cc4CC[C@@H]23)N1CCO`, the half-life in data set [1] was 60 min; in data set [2], 36 min; in data set [3], over 120 min.

What is called EC50 is the concentration needed to bring the measured effect to its halfway point. As for `O=C(O)CN1C(=O)[C@H](F)C[C@H]1C(=O)N1CC[C@@]2(S(=O)(=O)c3ccc(F)cc3)c3ccc(C(F)(C(F)(F)F)C(F)(F)F)cc3CC[C@@H]12`, it took 1500 nM to reach a half-maximal effect in data set [4] (EC50).

Turning to `N#CCCN1C(=O)[C@H](F)C[C@H]1C(=O)N1CC[C@@]2(S(=O)(=O)c3ccc(F)cc3)c3ccc(C(F)(C(F)(F)F)C(F)(F)F)cc3CC[C@@H]12`, the EC50 in data set [5] worked out at 30 nM; in data set [4], 18 nM. Further, the half-life in data set [1] is 79 min; in data set [2] it was 45 min; in data set [3], over 120 min.

For the molecule `[2H]C([2H])([2H])N1C(=O)C(F)(F)C[C@H]1C(=O)N1CC[C@@]2(S(=O)(=O)c3ccc(F)cc3)c3ccc(C(F)(C(F)(F)F)C(F)(F)F)cc3CC[C@@H]12`, the results for the half-life in data set [1], in data set [2] and in data set [3] were 88 min, 58 min and 57 min, respectively.

`CC(C)N1C(=O)[C@H](F)C[C@H]1C(=O)N1CC[C@@]2(S(=O)(=O)c3ccc(F)cc3)c3ccc(C(F)(C(F)(F)F)C(F)(F)F)cc3CC[C@@H]12`: the half-life in data set [1] came to 52 min; in data set [2] it was 45 min; in data set [3] it was 50 min.

As to `CN1C(=O)[C@H](F)C[C@H]1C(=O)N1CC[C@@]2(S(=O)(=O)c3ccc(F)cc3)c3ccc(C(F)(C(F)(F)F)C(F)(F)F)cc3CC[C@@H]12`, the half-life in data set [1] is 75 min; in data set [2], 55 min; in data set [3], over 120 min.

Turning to `CN1C(=O)[C@@H](O)C[C@H]1C(=O)N1CC[C@@]2(S(=O)(=O)c3ccc(F)cc3)c3ccc(C(F)(C(F)(F)F)C(F)(F)F)cc3CC[C@@H]12`, the half-life in data set [1] came to 25 min; in data set [2], 10 min; in data set [3], 27 min.

As to `O=C1[C@H](F)C[C@@H](C(=O)N2CC[C@@]3(S(=O)(=O)c4ccc(F)cc4)c4ccc(C(F)(C(F)(F)F)C(F)(F)F)cc4CC[C@@H]23)N1Cc1ccc(F)cc1`, the EC50 stood at 57 nM in data set [5] and 7 nM in data set [4]. Also, the half-life was determined as 29 min in data set [1], 35 min in data set [2] and 24 min in data set [3].

As for `N#Cc1ccc(CN2C(=O)[C@H](F)C[C@H]2C(=O)N2CC[C@@]3(S(=O)(=O)c4ccc(F)cc4)c4ccc(C(F)(C(F)(F)F)C(F)(F)F)cc4CC[C@@H]23)cc1`, the figures for the half-life in data set [1], in data set [2] and in data set [3] were 74 min, 61 min and 58 min, respectively. In data set [4], this molecule came in with an EC50 of 30 nM.

As to `[2H]C([2H])([2H])N1C(=O)[C@@H](F)C[C@H]1C(=O)N1CC[C@@]2(S(=O)(=O)c3ccc(F)cc3)c3ccc(C(F)(C(F)(F)F)C(F)(F)F)cc3CC[C@@H]12`, the half-life was 85 min in data set [1], 48 min in data set [2] and over 120 min in data set [3].

Regarding `CO[C@H]1C[C@@H](C(=O)N2CC[C@@]3(S(=O)(=O)c4ccc(F)cc4)c4ccc(C(F)(C(F)(F)F)C(F)(F)F)cc4CC[C@@H]23)N(C)C1=O`, the figures for the half-life in data set [1], in data set [2] and in data set [3] were 94 min, 43 min and over 120 min, respectively.

For `CN1C(=O)CC[C@H]1C(=O)N1CC[C@@]2(S(=O)(=O)c3ccc(F)cc3)c3ccc(C(F)(C(F)(F)F)C(F)(F)F)cc3CC[C@@H]12`, the half-life in data set [1] was 116 min; in data set [2], over 120 min; in data set [3] it was 87 min.
